Laboratory results as given in patent US20250099406A1, “TREATING CANCERS WITH COMBINATIONS OF ACYLFULVENES WITH IBRUTINIB AND/OR BORTEZOMIB” (LANTERN PHARMA INC., priority 2022, published 2025).
Entries after “also recorded” stand apart in the source; their conditions may differ.

System: JeKo-1 MCL xenograft tumors
Assay: JeKo-1 MCL cell line-derived xenograft mouse study
Assay type: in vivo, NOD.Scid mice
Conditions: for tumor response to single-agent treatment: n=8/arm, low dose LP-284 (2 mg/kg i.v.), bortezomib 1 mg/kg i.p. or ibrutinib 50 mg/kg p.o.; for tumor volume: at day 17, on bortezomib (1 mg/kg i.p.) or ibrutinib (50 mg/kg p.o.), tumors refractory; for tumor size: day 16, treated by bortezomib (1 mg/kg, i.p.) or ibrutinib (50 mg/kg, p.o.)
Procedure: The JeKo-1 MCL cell line-derived xenograft mice (n=8/arm) were treated with vehicle, LP-284 (2 mg/kg or 4 mg/kg, i.v.), bortezomib (1 mg/kg, i.p.), or ibrutinib (50 mg/kg, p.o.) at days indicated by arrows in the graph. Tumor volumes were measured every 2 to 4 days after treatment initiation.
The two drugs were replaced with one cycle of 4 mg/kg LP-284 or the vehicle (saline).
Each treatment arm was then further split into two sub-arms (n=4/sub-arm), one of which was treated by vehicle whereas the other was treated by 4 mg/kg LP-284 (i.v.), as indicated by arrows in the graph.
Five-week old NOD.Scid mice were procured through Envigo (Item 17003F). Mice were fed Teklad irradiated (sterilized) mouse diet and bedded with Teklad irradiated (sterilized) corncob bedding from Envigo (Indianapolis, IN). Mice were housed in Optimice carousel sterile quarters with filtered air supply in disposable cages from Animal Care Systems, Inc. (Centennial, CO). A total of 1×10^7 cells JeKo-1 cells were injected subcutaneously into the right hind flank of each animal using a […] needle. Vehicle (saline), 4 mg/kg or 2 mg/kg LP-284 was administered as an intravenous injection on day 1, 3, 5, 7, 9, 17, 19, 21, 23, 25. 50 mg/kg ibrutinib was administered orally daily on day 1-16. 1 mg/kg bortezomib administered as an intraperitoneal injection on day 1, 4, 7, 10. The ibrutinib and bortezomib arms were further treated with vehicle or 4 mg/kg LP-284 intravenously on day 17, 19, 21, 23, 25. Tumors were measured in two dimensions using calipers, and volume was calculated using the formula:
TumorVolume (mm^3)=w2×l/2
where w=width and l=length, in mm, of the tumor. For this study the calipers were aligned to the tumor edges (the tumors were not squeezed with the caliper).

In the case of `CC1=C(CN(O)C(N)=O)C2=C(C)C3(CC3)[C@](C)(O)C(=O)C2=C1` [LP-284, (+)-hydroxyureamethyl acylfulvene], the “survival versus vehicle (Kaplan-Meier)” value (bortezomib or ibrutinib pre-treated and refractory xenograft mice switched to 4 mg/kg LP-284 i.v., p<0.001) is reported as “approximately two times longer; also recorded: prolonged survival”, the “tumor response to single-agent treatment” value is reported as “resulted in refractory cancer after initially controlling cell growth in tumors” and the “tumor response after switching bortezomib- or ibrutinib-refractory mice to LP-284” value (one cycle of 4 mg/kg LP-284 i.v. on day 17, 19, 21, 23, 25, tumors ~2000 mm3, n=4/sub-arm, 4 mg/kg) is reported as “almost completely eliminating; also recorded: near complete tumor regression; also recorded: diminished rapidly”.
In the case of `CC(C)C[C@H](NC(=O)[C@H](Cc1ccccc1)NC(=O)c1cnccn1)B(O)O` [bortezomib, [(1R)-3-methyl-1-({(2S)-3-phenyl-2-[(pyrazin-2-ylcarbonyl)amino]propanoyl}amino)butyl]boronic acid], the tumor volume is reported as about 2000 mm3, the tumor size is reported as about 2000 mm3 and the “tumor response to single-agent treatment” value is reported as “refractory”. The “tumor response to single-agent treatment” value (listed as Bortezomib) was “resulted in refractory cancer after initially controlling cell growth in tumors; also recorded: become refractory and relapse”.
In the case of `C=CC(=O)N1CCC[C@@H](n2nc(-c3ccc(Oc4ccccc4)cc3)c3c(N)ncnc32)C1` [ibrutinib, (R)-1-(3-(4-amino-3-(4-phenoxyphenyl)-1H-pyrazolo[3,4-d]pyrimidin-1-yl)piperidin-1-yl) prop-2-en-1-one], the tumor volume is reported as about 2000 mm3, the tumor size is reported as about 2000 mm3 and the “tumor response to single-agent treatment” value is reported as “refractory”. For the same compound, the “tumor response to single-agent treatment” value (listed as Ibrutinib) was “resulted in refractory cancer after initially controlling cell growth in tumors; also recorded: become refractory and relapse”.
